# Several values for one entry are separate records, joined by “and”; a condition that tells them apart may be missing. Identical values can stand only once. Inconclusive results and toxic doses are left out. Square brackets hold non-standard residues; d marks the D form. Peptide text beside a SMILES is read from it. * marks the point of attachment. ξ: configuration not given here. Cbz = O=C(OCc1ccccc1)*; ξNva = CCCC(N)C(=O)O
# Tested on: P388 leukemia ip, CD2F1 mice, survival T/C
# Experiment: NCI In Vivo Anticancer Drug Screen. Data for tumor model P388 Leukemia (intraperitoneal) in CD2F1 (CDF1) mice
# Conditions: endpoint: median survival time, higher = longer survival
# In short: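 Mice carrying the transplanted tumor received test compound or vehicle. Survival was recorded in each group, and the value is the treated-group measurement divided by that of the vehicle-treated control group.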
# [1] = dose: 6.25 mg/kg/injection, schedule: Q01DX009 (ip), vehicle: saline with Tween-80
# [2] = dose: 12.5 mg/kg/injection, schedule: Q01DX009 (ip), vehicle: saline
# [3] = dose: 25.0 mg/kg/injection, schedule: Q01DX009 (ip), vehicle: saline
# [4] = dose: 50.0 mg/kg/injection, schedule: Q01DX009 (ip), vehicle: saline with Tween-80
# [5] = dose: 50.0 mg/kg/injection, schedule: Q01DX009 (ip), vehicle: saline
# [6] = dose: 3.13 mg/kg/injection, schedule: Q01DX009 (ip), vehicle: saline with Tween-80
# [7] = dose: 12.5 mg/kg/injection, schedule: Q01DX009 (ip), vehicle: saline with Tween-80
# [8] = dose: 25.0 mg/kg/injection, schedule: Q01DX009 (ip), vehicle: saline with Tween-80
# [9] = dose: 100.0 mg/kg/injection, schedule: Q01DX009 (ip), vehicle: saline with Tween-80
# [10] = dose: 200.0 mg/kg/injection, schedule: Q01DX009 (ip), vehicle: saline with Tween-80
# [11] = dose: 50.0 mg/kg/injection, schedule: Q01DX009 (ip), vehicle: Klucel (hydroxypropylcellulose) (HPC)
# [12] = dose: 100.0 mg/kg/injection, schedule: Q01DX009 (ip), vehicle: Klucel (hydroxypropylcellulose) (HPC)
# [13] = dose: 200.0 mg/kg/injection, schedule: Q01DX009 (ip), vehicle: Klucel (hydroxypropylcellulose) (HPC)
# [14] = dose: 50.0 mg/kg/injection, schedule: Q01DX005 (ip), vehicle: Klucel (hydroxypropylcellulose) (HPC)
# [15] = dose: 100.0 mg/kg/injection, schedule: Q01DX005 (ip), vehicle: Klucel (hydroxypropylcellulose) (HPC)
# [16] = dose: 200.0 mg/kg/injection, schedule: Q01DX005 (ip), vehicle: Klucel (hydroxypropylcellulose) (HPC)
# [17] = dose: 50.0 mg/kg/injection, schedule: Q01DX005 (ip), vehicle: saline with Tween-80
# [18] = dose: 100.0 mg/kg/injection, schedule: Q01DX005 (ip), vehicle: saline with Tween-80
# [19] = dose: 200.0 mg/kg/injection, schedule: Q01DX009 (ip), vehicle: saline
compound,measurement,setting,value
CCOC(=O)CCCCCCN(/C=C(\C)CN1c2c(nc(N)[nH]c2=O)NCC1CNc1ccc(C(=O)NC(CCC(=O)O)C(=O)O)cc1)C(C)=O (stereo not given),T/C,"dose: 50.0 mg/kg/injection, schedule: Q04DX003 (ip), vehicle: saline",97 % of control
same,T/C,"dose: 100.0 mg/kg/injection, schedule: Q04DX003 (ip), vehicle: saline",99 % of control
same,T/C,"dose: 200.0 mg/kg/injection, schedule: Q04DX003 (ip), vehicle: saline",98 % of control
Cc1cc2cc3cc(C)c(N)cc3nc2cc1N,T/C,[1],120 % of control and 219 % of control
same,T/C,[2],113 % of control
same,T/C,[3],110 % of control
same,T/C,[4],97 % of control
same,T/C,[5],114 % of control
N#C/C(C(=N)c1ccccc1)=C1\SS/C(=C(\C#N)C(=N)c2ccccc2)S1,T/C,"dose: 1.56 mg/kg/injection, schedule: Q01DX009 (ip), vehicle: saline with Tween-80",99 % of control and 90 % of control
same,T/C,[6],99 % of control and 103 % of control
same,T/C,[1],104 % of control and 86 % of control and 90 % of control
same,T/C,[7],86 % of control and 97 % of control
same,T/C,[8],86 % of control
same,T/C,[4],105 % of control
same,T/C,[9],107 % of control
same,T/C,[10],105 % of control
CCCCCCCCCCCCCCCCOc1cccc(/C(=N/NS(C)(=O)=O)N2CCCCC2)c1,T/C,[11],89 % of control
same,T/C,[12],92 % of control
same,T/C,[13],91 % of control
NNC(=O)CS(=O)(=O)NCc1ccccc1,T/C,[14],100 % of control
same,T/C,[15],99 % of control
same,T/C,[16],97 % of control
CCCCCCCCCCCC1=c2o[nH]c2=C(c2ccccn2)C(=O)C1=O,T/C,[17],94 % of control
same,T/C,[18],86 % of control
O=C(NN1CCOCC1)C(F)(F)F,T/C,"dose: 100.0 mg/kg/injection, schedule: Q01DX001 (ip), vehicle: saline",100 % of control
same,T/C,"dose: 200.0 mg/kg/injection, schedule: Q01DX001 (ip), vehicle: saline",99 % of control
same,T/C,"dose: 400.0 mg/kg/injection, schedule: Q01DX001 (ip), vehicle: saline",99 % of control
O=C1NC(O)c2cccc(Br)c2O1 (stereo not given),T/C,[17],93 % of control
same,T/C,[18],107 % of control
same,T/C,"dose: 200.0 mg/kg/injection, schedule: Q01DX005 (ip), vehicle: saline with Tween-80",117 % of control
CCN(CC)CC(C)=O,T/C,[3],101 % of control
same,T/C,[5],102 % of control
same,T/C,"dose: 100.0 mg/kg/injection, schedule: Q01DX009 (ip), vehicle: saline",103 % of control
same,T/C,[19],104 % of control
O=C1Oc2ccccc2C(=O)C1=S1CCCC1,T/C,[14],98 % of control
same,T/C,[15],91 % of control
same,T/C,[16],94 % of control
Cc1nn(-c2ccccc2)c([O-])c1[N+]#N,T/C,"dose: 100.0 mg/kg/injection, schedule: Q04DX002 (ip), vehicle: Klucel (hydroxypropylcellulose) (HPC)",102 % of control
same,T/C,"dose: 200.0 mg/kg/injection, schedule: Q04DX002 (ip), vehicle: Klucel (hydroxypropylcellulose) (HPC)",102 % of control
same,T/C,"dose: 400.0 mg/kg/injection, schedule: Q04DX002 (ip), vehicle: Klucel (hydroxypropylcellulose) (HPC)",100 % of control
C=C(CN(C)C)C(=O)c1ccccc1Cl,T/C,"dose: 1.8 mg/kg/injection, schedule: Q01DX005 (ip), vehicle: saline",109 % of control
same,T/C,"dose: 3.75 mg/kg/injection, schedule: Q01DX005 (ip), vehicle: saline",106 % of control
same,T/C,"dose: 7.5 mg/kg/injection, schedule: Q01DX005 (ip), vehicle: saline",105 % of control and 107 % of control
CCCCCCCCC1OCN2CC(CC)CCC12 (stereo not given),T/C,"dose: 50.0 mg/kg/injection, schedule: Q01DX005 (ip), vehicle: saline",107 % of control
same,T/C,"dose: 100.0 mg/kg/injection, schedule: Q01DX005 (ip), vehicle: saline",108 % of control
same,T/C,"dose: 200.0 mg/kg/injection, schedule: Q01DX005 (ip), vehicle: saline",108 % of control
COC(=O)/C=C(/C(=O)OC)N(C)Cc1ccccc1,T/C,"dose: 25.0 mg/kg/injection, schedule: Q01DX009 (ip), vehicle: Klucel (hydroxypropylcellulose) (HPC)",97 % of control
same,T/C,[11],104 % of control
same,T/C,[12],98 % of control
same,T/C,"dose: 100.0 mg/kg/injection, schedule: Q04DX003 (ip), vehicle: saline with Tween-80",99 % of control
same,T/C,[13],101 % of control
same,T/C,"dose: 200.0 mg/kg/injection, schedule: Q04DX003 (ip), vehicle: saline with Tween-80",99 % of control
same,T/C,"dose: 400.0 mg/kg/injection, schedule: Q04DX003 (ip), vehicle: saline with Tween-80",101 % of control
c1ccc2c3c(ccc2c1)OCCOCCOc1ccc2ccccc2c1-c1c(ccc2ccccc12)OCCOCCOc1ccc2ccccc2c1-3,T/C,"dose: 100.0 mg/kg/injection, schedule: Q04DX002 (ip), vehicle: saline with Tween-80",96 % of control
same,T/C,"dose: 200.0 mg/kg/injection, schedule: Q04DX002 (ip), vehicle: saline with Tween-80",89 % of control
same,T/C,"dose: 400.0 mg/kg/injection, schedule: Q04DX002 (ip), vehicle: saline with Tween-80",91 % of control
CCOC(=O)CCC(NC(=O)C(CCC(=O)OCC)NC(=O)OCc1ccccc1)C(=O)O (stereo not given) (tested in a mixture with another compound) (Cbz-Glu(OEt)-Glu(OEt)-OH; configuration not given here),T/C,[14],100 % of control
same,T/C,[15],100 % of control
same,T/C,[16],100 % of control
O=C[C@@H](CO)O[C@H](C=O)n1cnc2c(=O)[nH]cnc21,T/C,"dose: 80.0 mg/kg/injection, schedule: Q01DX009 (ip), vehicle: saline",166 % of control and 169 % of control
same,T/C,"dose: 150.0 mg/kg/injection, schedule: Q01DX005 (ip), vehicle: saline",171 % of control
same,T/C,"dose: 160.0 mg/kg/injection, schedule: Q01DX009 (ip), vehicle: saline",187 % of control and 189 % of control and 209 % of control
same,T/C,"dose: 250.0 mg/kg/injection, schedule: Q01DX005 (ip), vehicle: saline",56 % of control
same,T/C,"dose: 320.0 mg/kg/injection, schedule: Q01DX009 (ip), vehicle: saline",100 % of control and 104 % of control
CCCCN(CCCC)CN(CCCC)CCCC,T/C,"dose: 12.5 mg/kg/injection, schedule: Q01DX005 (ip), vehicle: saline with Tween-80",102 % of control
same,T/C,"dose: 25.0 mg/kg/injection, schedule: Q01DX005 (ip), vehicle: saline with Tween-80",112 % of control
same,T/C,[17],104 % of control and 114 % of control
Cc1c2c(c(C)c3c1C(=O)c1cc4c(cc1C3=O)OCO4)OC(C)O2,T/C,"dose: 60.0 mg/kg/injection, schedule: Q01DX005 (ip), vehicle: saline with Tween-80",89 % of control
same,T/C,"dose: 120.0 mg/kg/injection, schedule: Q01DX005 (ip), vehicle: saline with Tween-80",89 % of control
same,T/C,"dose: 240.0 mg/kg/injection, schedule: Q01DX005 (ip), vehicle: saline with Tween-80",91 % of control
CC1=CCCC(C(C)O)O1 (stereo not given),T/C,"dose: 6.25 mg/kg/injection, schedule: Q01DX009 (ip), vehicle: saline",107 % of control
same,T/C,[2],104 % of control
same,T/C,[3],105 % of control
same,T/C,[19],87 % of control
O=[N+]([O-])CC(OCCCCO)C(Cl)(Cl)Cl (stereo not given),T/C,[4],101 % of control
same,T/C,[9],96 % of control
same,T/C,[10],87 % of control
CCS/C(=C/[P+](c1ccccc1)(c1ccccc1)c1ccccc1)SC,T/C,"dose: 6.25 mg/kg/injection, schedule: Q01DX005 (ip), vehicle: saline with Tween-80",101 % of control
CCCC(NC(=O)OCc1ccccc1)C(=O)NCC(=O)NCC(=O)OC (stereo not drawn) (Cbz-[ξNva]-Gly-Gly-OMe),T/C,[14],110 % of control
same,T/C,[15],113 % of control
same,T/C,[16],113 % of control
O=c1[nH]cc(N=Cc2ccccc2F)c(=O)[nH]1,T/C,"dose: 50.0 mg/kg/injection, schedule: Q01DX009 (ip), vehicle: suspension in saline",92 % of control
same,T/C,"dose: 100.0 mg/kg/injection, schedule: Q01DX009 (ip), vehicle: suspension in saline",100 % of control
same,T/C,"dose: 200.0 mg/kg/injection, schedule: Q01DX009 (ip), vehicle: suspension in saline",96 % of control
O=C(N1CCCCC1Cc1ccccc1)C(Cl)(Cl)Cl (stereo not given),T/C,"dose: 30.0 mg/kg/injection, schedule: Q01DX005 (ip), vehicle: Klucel (hydroxypropylcellulose) (HPC)",101 % of control
same,T/C,"dose: 60.0 mg/kg/injection, schedule: Q01DX005 (ip), vehicle: Klucel (hydroxypropylcellulose) (HPC)",101 % of control
Cc1ccc(S(=O)(=O)OCC(C)(C)COS(=O)(=O)c2ccc(C)cc2)cc1,T/C,[6],103 % of control
same,T/C,[1],103 % of control
same,T/C,[7],105 % of control
same,T/C,[8],106 % of control

# From PubChem BioAssay AID330 (DTP/NCI, 2004)
